Converted amounts (≈) assume the structure as drawn.
Tested on: Mycobacterium tuberculosis variant bovis
Test: Antimycobacterial activity against Mycobacterium bovis BCG assessed as inhibition of bacterial growth incubated for 4 days by alamar blue assay
Type: functional
Conditions: 96 h, time 4 day

Question: For `CCCC[C@H](CN(O)C=O)C(=O)N1CCC[C@H]1C(=O)Nc1ccccn1`, which MIC is on record?
Answer: The MIC was 0.2 µg/mL (≈ 0.552 µM).

Source: ChEMBL document CHEMBL5143637, “Design, synthesis and antibacterial activity against pathogenic mycobacteria of conjugated hydroxamic acids, hydrazides and O-alkyl/O-acyl protected hydroxamic derivatives” (Bioorg Med Chem Lett, 2022)
